Laboratory results taken from US20240041042A1, “1-(PYRIDYL)-5-AZINYLPYRAZOLE DERIVATIVES, AND THEIR USE FOR CONTROL OF UNDESIRED PLANT GROWTH” (Bayer Aktiengesellschaft, priority 2020, published 2024).

Assays:
Assay type in all cases: in vivo
Viola tricolor (VIOTR) [1] = experiment: Post-emergence herbicidal action against VIOTR
Procedure, shortened: (§1)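 Post-emergence greenhouse spray, one-leaf stage, 600 l/ha water plus 0.5% additive; WP or EC formulations; application rates 320 g/ha or lower. Visual % damage vs untreated controls at ~3 weeks.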

Avena fatua (AVEFA) [2] = experiment: Pre-emergence herbicidal action against AVEFA; conditions: visual scoring after about 3 weeks vs untreated controls
Procedure, shortened: (§2)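 Seeds sown in pots and covered with soil; WP or EC formulations sprayed onto the soil surface at 600 l/ha water with 0.5% additive, at 320 g/ha or lower. Greenhouse growth for about 3 weeks, then visual scoring as % effect against untreated controls (100% = plants dead).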

Lolium rigidum (LOLRI) [3] = experiment: Post-emergence herbicidal action against LOLRI
Procedure, shortened: as §1

[4] = system: Abutilon theophrasti (ABUTH); experiment: Pre-emergence herbicidal action against ABUTH; conditions: 100% = plants have died
Procedure, shortened: as §2

[5] = system: Verconica persica (VERPE); experiment: Post-emergence herbicidal action against VERPE
Procedure, shortened: as §1

[6] = system: Pharbitis purpurea (PHBPU); experiment: Post-emergence herbicidal action against PHBPU; conditions: dosage 320 g/ha
Procedure, shortened: as §1

[7] = system: Matricaria inodora (MATIN); experiment: Pre-emergence herbicidal action against MATIN
Procedure, shortened: as §2

[8] = system: Echinochloa crus-galli (ECHCG); experiment: Pre-emergence herbicidal action against ECHCG
Procedure, shortened: as §2

[9] = system: Echinochloa crus-galli (ECHCG); experiment: Post-emergence herbicidal action against ECHCG
Procedure, shortened: as §1

[10] = system: Pharbitis purpurea (PHBPU); experiment: Pre-emergence herbicidal action against PHBPU
Procedure, shortened: as §2

Viola tricolor (VIOTR) [11] = experiment: Pre-emergence herbicidal action against VIOTR
Procedure, shortened: as §2

Setaria viridis (SETVI) [12] = experiment: Post-emergence herbicidal action against SETVI
Procedure, shortened: as §1

[13] = system: Alopecurus myosuroides (ALOMY); experiment: Post-emergence herbicidal action against ALOMY; conditions: visual rating about 3 weeks after treatment vs untreated controls (100% = plants have died, 0% = like control plants)
Procedure, shortened: as §1

[14] = system: Matricaria inodora (MATIN); experiment: Post-emergence herbicidal action against MATIN; conditions: dosage 320 g/ha
Procedure, shortened: as §1

[15] = system: Alopecurus myosuroides (ALOMY); experiment: Pre-emergence herbicidal action against ALOMY; conditions: scored visually after about 3 weeks, 100% = plants have died
Procedure, shortened: as §2

[16] = system: Amaranthus retroflexus (AMARE); experiment: Post-emergence herbicidal action against AMARE
Procedure, shortened: as §1

Setaria viridis (SETVI) [17] = experiment: Pre-emergence herbicidal action against SETVI
Procedure, shortened: as §2

Lolium rigidum (LOLRI) [18] = experiment: Pre-emergence herbicidal action against LOLRI
Procedure, shortened: as §2

[19] = system: Abutilon theophrasti (ABUTH); experiment: Post-emergence herbicidal action against ABUTH; conditions: visual rating about 3 weeks after treatment vs untreated controls (100% = plants have died, 0% = like control plants)
Procedure, shortened: as §1

[20] = system: Amaranthus retroflexus (AMARE); experiment: Pre-emergence herbicidal action against AMARE; conditions: visual scoring after about 3 weeks vs untreated controls
Procedure, shortened: as §2

[21] = system: Polygonum convolvulus (POLCO); experiment: Pre-emergence herbicidal action against POLCO
Procedure, shortened: as §2

Avena fatua (AVEFA) [22] = experiment: Post-emergence herbicidal action against AVEFA; conditions: 320 g/ha, visual rating about 3 weeks after treatment
Procedure, shortened: as §1

[23] = system: Verconica persica (VERPE); experiment: Pre-emergence herbicidal action against VERPE
Procedure, shortened: as §2

[24] = system: Polygonum convolvulus (POLCO); experiment: Post-emergence herbicidal action against POLCO; conditions: dosage 320 g/ha
Procedure, shortened: as §1

[25] = 80 g/ha, scored visually after about 3 weeks vs untreated controls, 0% = like control plants
[26] = Dosage column 320 g/ha (title prints 3200 g/ha), scored visually after about 3 weeks
[27] = 320 g/ha, visual rating about 3 weeks after treatment

Structure (SMILES): COC(=O)C(C)NC(=O)[C@@H](C)Oc1nn(-c2ccccn2)c(-c2cncc(F)c2)c1Cl (some centres unmarked) [Example I-199]
- Post-emergence action against VIOTR in % (Viola tricolor (VIOTR) [1]; 80 g/ha): 80%
- Post-emergence action against VIOTR in % (Viola tricolor (VIOTR) [1]; 320 g/ha): 80%
- Pre-emergence action against AVEFA in % (Avena fatua (AVEFA) [2]; 80 g/ha): 80%
- Pre-emergence action against AVEFA in % (Avena fatua (AVEFA) [2]; 320 g/ha): 90%
- Post-emergence action against LOLRI in % (Lolium rigidum (LOLRI) [3]; dosage 80 g/ha): 90%
- Post-emergence action against LOLRI in % (Lolium rigidum (LOLRI) [3]; dosage 320 g/ha): 90%
- Pre-emergence action against ABUTH [4, 25]: 80%
- Pre-emergence action against ABUTH [4, 26]: 90%
- Post-emergence action against VERPE in % ([5]; 320 g/ha, VERPE): 90%
- Post-emergence action against VERPE in % ([5]; dosage 80 g/ha): 90%
- Post-emergence action against PHBPU in % [6]: 80%
- Pre-emergence action against MATIN in % ([7]; dosage 80 g/ha): 90%
- Pre-emergence action against MATIN in % ([7]; dosage 320 g/ha): 100%
- Pre-emergence action against ECHCG in % ([8]; dosage 80 g/ha): 90%
- Pre-emergence action against ECHCG in % ([8]; dosage 320 g/ha): 90%
- Post-emergence action against ECHCG in % ([9]; dosage 80 g/ha): 90%
- Post-emergence action against ECHCG in % ([9]; dosage 320 g/ha): 90%
- Pre-emergence action against PHBPU in % ([10]; dosage 80 g/ha): 80%
- Pre-emergence action against PHBPU in % ([10]; dosage 320 g/ha): 90%
- Pre-emergence action against VIOTR in % (Viola tricolor (VIOTR) [11]; 320 g/ha, Viola tricolor): 100%
- Pre-emergence action against VIOTR in % (Viola tricolor (VIOTR) [11]; dosage 80 g/ha): 100%
- Post-emergence action against SETVI in % (Setaria viridis (SETVI) [12]; dosage 80 g/ha): 80%
- Post-emergence action against SETVI in % (Setaria viridis (SETVI) [12]; dosage 320 g/ha): 90%
- Post-emergence action against ALOMY in % ([13]; 320 g/ha): 90%
- Post-emergence action against MATIN in % [14]: 80%
- Pre-emergence action against ALOMY ([15]; 80 g/ha): 90%
- Pre-emergence action against ALOMY ([15]; 320 g/ha): 90%
- Post-emergence action against AMARE in % ([16]; 80 g/ha, visual rating about 3 weeks after treatment vs untreated controls (100% = plants have died, 0% = like control plants)): 80%
- Post-emergence action against AMARE in % [16, 27]: 90%
- Pre-emergence action against SETVI in % (Setaria viridis (SETVI) [17]; dosage 80 g/ha): 90%
- Pre-emergence action against SETVI in % (Setaria viridis (SETVI) [17]; dosage 320 g/ha): 100%
- Pre-emergence action against LOLRI in % (Lolium rigidum (LOLRI) [18]; dosage 80 g/ha): 100%
- Pre-emergence action against LOLRI in % (Lolium rigidum (LOLRI) [18]; dosage 320 g/ha): 100%
- Post-emergence action against ABUTH in % ([19]; 320 g/ha): 80%
- Pre-emergence action against AMARE in % ([20]; 80 g/ha): 100%
- Pre-emergence action against AMARE in % ([20]; 320 g/ha): 100%
- Pre-emergence action against POLCO in % ([21]; dosage 80 g/ha): 80%
- Pre-emergence action against POLCO in % ([21]; dosage 320 g/ha): 90%
- Post-emergence action against AVEFA in % (Avena fatua (AVEFA) [22]): 80%
- Pre-emergence action against VERPE in % ([23]; dosage 80 g/ha): 90%
- Pre-emergence action against VERPE in % ([23]; dosage 320 g/ha): 100%

Structure (SMILES): CCOC(=O)COc1nn(-c2ccccn2)c(-c2ccc(F)nc2)c1Br [Example I-86]
- Post-emergence action against VIOTR in % (Viola tricolor (VIOTR) [1]; 80 g/ha): 80%
- Post-emergence action against VIOTR in % (Viola tricolor (VIOTR) [1]; 320 g/ha): 90%
- Pre-emergence action against AVEFA in % (Avena fatua (AVEFA) [2]; 320 g/ha): 90%
- Post-emergence action against POLCO in % [24]: 90%
- Post-emergence action against LOLRI in % (Lolium rigidum (LOLRI) [3]; dosage 80 g/ha): 100%
- Post-emergence action against LOLRI in % (Lolium rigidum (LOLRI) [3]; dosage 320 g/ha): 100%
- Pre-emergence action against ABUTH [4, 25]: 80%
- Pre-emergence action against ABUTH [4, 26]: 100%
- Post-emergence action against VERPE in % ([5]; 320 g/ha, VERPE): 80%
- Pre-emergence action against MATIN in % ([7]; dosage 320 g/ha): 100%
- Pre-emergence action against ECHCG in % ([8]; dosage 80 g/ha): 100%
- Pre-emergence action against ECHCG in % ([8]; dosage 320 g/ha): 100%
- Post-emergence action against ECHCG in % ([9]; dosage 80 g/ha): 100%
- Post-emergence action against ECHCG in % ([9]; dosage 320 g/ha): 100%
- Pre-emergence action against PHBPU in % ([10]; dosage 320 g/ha): 90%
- Pre-emergence action against VIOTR in % (Viola tricolor (VIOTR) [11]; 320 g/ha, Viola tricolor): 100%
- Pre-emergence action against VIOTR in % (Viola tricolor (VIOTR) [11]; dosage 80 g/ha): 80%
- Post-emergence action against SETVI in % (Setaria viridis (SETVI) [12]; dosage 80 g/ha): 100%
- Post-emergence action against SETVI in % (Setaria viridis (SETVI) [12]; dosage 320 g/ha): 100%
- Post-emergence action against ALOMY in % ([13]; 80 g/ha): 100%
- Post-emergence action against ALOMY in % ([13]; 320 g/ha): 100%
- Post-emergence action against MATIN in % [14]: 80%
- Pre-emergence action against ALOMY ([15]; 80 g/ha): 100%
- Pre-emergence action against ALOMY ([15]; 320 g/ha): 100%
- Post-emergence action against AMARE in % [16, 27]: 90%
- Pre-emergence action against SETVI in % (Setaria viridis (SETVI) [17]; dosage 80 g/ha): 100%
- Pre-emergence action against SETVI in % (Setaria viridis (SETVI) [17]; dosage 320 g/ha): 100%
- Pre-emergence action against LOLRI in % (Lolium rigidum (LOLRI) [18]; dosage 80 g/ha): 100%
- Pre-emergence action against LOLRI in % (Lolium rigidum (LOLRI) [18]; dosage 320 g/ha): 100%
- Post-emergence action against ABUTH in % ([19]; 80 g/ha): 90%
- Post-emergence action against ABUTH in % ([19]; 320 g/ha): 90%
- Pre-emergence action against AMARE in % ([20]; 80 g/ha): 100%
- Pre-emergence action against AMARE in % ([20]; 320 g/ha): 100%
- Pre-emergence action against POLCO in % ([21]; dosage 320 g/ha): 100%
- Post-emergence action against AVEFA in % (Avena fatua (AVEFA) [22]): 100%
- Pre-emergence action against VERPE in % ([23]; dosage 320 g/ha): 90%
